This note sets out measurements from US9512111B2, “N-sulfonylated tetrahydroquinolines and related bicyclic compounds for inhibition of RORγ activity and the treatment of disease” (Lycera Corporation, priority 2010, dated 2016).

Where two headings read alike, the source gives them in different places. Some results are limits rather than exact numbers.

The target in experiment [1] is T1, RORγt (Homo sapiens, UniProt P51449).
T1 construct: The resulting GAL4-RORγt-LBD fusion construct was placed under the control of a constitutive cytomegalovirus (CMV) promoter; expressed in transfected cells; host or cells: HEK293
T1 sequence (P51449 269-508 limits assumed): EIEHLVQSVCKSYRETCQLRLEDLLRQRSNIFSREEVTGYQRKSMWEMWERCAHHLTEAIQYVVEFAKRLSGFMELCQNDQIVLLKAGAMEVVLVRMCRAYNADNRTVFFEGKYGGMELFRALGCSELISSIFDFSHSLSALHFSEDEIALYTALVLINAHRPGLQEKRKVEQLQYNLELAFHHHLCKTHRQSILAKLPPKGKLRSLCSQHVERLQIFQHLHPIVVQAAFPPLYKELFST
Kind of experiment: RORγ Reporter Assay (GAL4-UAS luciferase reporter in HEK293 cells). It counts as cell-based. As for the experimental part: Inhibition of RORγt in cells was determined using a GAL4-UAS reporter system in HEK293 cells employing a luciferase readout. The RORγt DNA binding domain (DBD) was replaced with the heterologous yeast GAL4 DBD using standard recombinant DNA methods. The resulting GAL4-RORγt-LBD fusion construct was placed under the control of a constitutive cytomegalovirus (CMV) promoter by cloning it into the CMV-driven mammalian expression vector pcDNA3.1+− (Promega Corporation, Madison, Wis.).
A transcriptional reporter expression construct was used to monitor GAL4-RORγ activity, which contained five copies of the GAL4 binding site enhancer (UAS) controlling expression of a firefly luciferase reporter. This construct, pGL4.31, is commercially available from Promega Corporation, Madison Wis. Both expression constructs were transfected in bulk into HEK-293 cells using standard lipid-based transfection techniques, which allowed the GAL4 RORγ-LBD fusion protein to drive expression of the luciferase reporter. Control transfections were performed with an empty pCDN3.1+ vector.
The next day, cells were plated into 384 well plates, test compound was added, and the plates were incubated overnight. […] Promega firefly assays kits were used to stabilize the luciferase signal, and the intensity of the luciferase signal was measured using an EnVision Multilabel Plate Reader (Perkin Elmer, Waltham, Mass.).
HEK 293 cells are transfected with GAL4-NR construct (CMV:NR-LBD in pcDNA3.1neo) and the pGL4.31 GAL4-luciferase reporter construct (Promega). For a background control, use empty pcDNA3.1neo and pGL4.31. Transfection protocol is for a single T75 flask performed with Minis Trans-It 293 reagent. A 60 μL aliquot of Trans-IT reagent at room temperature is added drop wise to 1.5 mL of Optimem (Invitrogen). The resulting solution is mixed by inversion and incubated for 5-20 minutes at room temperature. This reagent mixture is added to 10 μg of DNA (5 μg of each expression vector used at a concentration of 1 mg/mL). The solution is mixed by inversion and incubated at room temperature for 20 minutes.
While the Trans-IT reagent and DNA are incubating, harvest HEK-293 cells. Remove media from flasks via aspiration and add enough TrypLE Express (stable Trypsin-like reagent, Invitrogen) to cover the bottom of the flask. The mixture is incubated at room temperature until the cells are visibly loose in the flask (approximately 2-5 minutes). Add an equal volume of complete growth media, and then pipette to achieve a single cell suspension. Spin down 1×10^7 cells and re-suspend the cells in 10 mL of complete growth media (DMEM high glucose/10% dialyzed FBS/pen/strep; Invitrogen). The cells and transfection mixture are added to one T75 flask. The contents of the T75 flax are mixed and incubated overnight at 37° C. and 5% CO2.
After 16-24 hours, cells are harvested and plated for test compound screening. Cells may be harvested as described above. Next, cells are counted and an appropriate number of cells are spun down. Then, cells are aspirated and re-suspended in complete growth media at a concentration of 0.5×10^6 cells/mL to provide a cell suspension. Plate 20 μL of the cell suspension into a white, tissue-culture treated 384 well plate. (10,000 cells/well).
A 10 mM stock solution of test compound in dimethylsulfoxide (DMSO) was diluted to 500× the final test concentration in DMSO, then diluted to 5× the final test concentration with complete growth medium to provide the Test Compound Solution. The concentration of DMSO in the Test Compound Solution was […]. A 5 μL aliquot of Test Compound Solution was added to each test well in the 384 well plate previously plated with the cell suspension. Next, plates are spun briefly and incubated overnight at 37° C. and 5% CO2.
After 16-24 hours, the luciferase assay is performed. Plates and luciferase reagent (e.g. One-Glo® or Dual Glo®; Promega, Madison, Wis.) are brought to room temperature.

The target in experiment [2] is T2, RORγ-LBD (Homo sapiens, UniProt P51449).
T2 construct: HIS-tagged RORγ-LBD was recombinantly expressed in SF9 cells; made in house; host or cells: SF9 cells (baculovirus); unpurified lysate
T2 sequence (P51449 269-508 limits assumed): T1 sequence (P51449 269-508 limits assumed)
The experiment in a line: RORγ-Ligand Binding Domain TR-FRET Assay. The experiment is classed as biochemical. The conditions noted are these: benzoxazines, Table 9. The gist of the method:
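IC50 derived from the 665 nm/615 nm emission ratio after 4 h to overnight incubation. Mixture: Sf9 lysate with His-tagged LBD (~10 nM final, not purified), SRC1-2 LXXLL biotin peptide at 450 nM, 2 nM europium anti-His antibody, 60 nM APC-streptavidin; buffer 25 mM HEPES pH 7.0, 100 mM NaCl, 0.01% Tween, 0.1% BSA.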
(In general: In TR-FRET formats the signal depends on donor and acceptor labels being close together.)

The mark [3] stands for this setting: Table 7, tetrahydroquinolines, HEK293 cells, read-out: RORγ HEK IC50.
[4] abbreviates: benzoxazines, Table 9, HEK cells.

With `O=C(Nc1ccc2c(c1)N(S(=O)(=O)c1ccc(Cl)cc1)CCC2)c1c(F)cccc1Cl` [Compound 5, 2-Chloro-N-[1-(4-chlorobenzenesulfonyl)-1,2,3,4-tetrahydroquinolin-7-yl]-6-fluorobenzamide], in experiment [1] (setting [3]), the IC50 (in general, the concentration at which inhibition is half-maximal) was less than 15 µM. For the compound `Cc1cc2c(cc1NC(=O)c1c(F)cccc1Cl)N(S(=O)(=O)c1ccc(F)cc1)CCC2` [Compound 6, 2-Chloro-6-fluoro-N-[1-(4-fluorobenzenesulfonyl)-6-methyl-1,2,3,4-tetrahydroquinolin-7-yl]benzamide], the IC50 in experiment [1] (setting [3]) is less than 15 µM.

Consider `COCC1CN(S(=O)(=O)c2ccc(F)cc2)c2cc(NC(=O)c3c(F)cccc3Cl)c(F)cc2O1` (centres unmarked) [Compound 12, 2-Chloro-6-fluoro-N-[7-fluoro-4-(4-fluorobenzenesulfonyl)-2-methoxymethyl-3,4-dihydro-2H-benzo[1,4]oxazin-6-yl]benzamide], for which the half-maximal inhibitory concentration (IC50) in experiment [2] and in experiment [1] (setting [4]) was less than 15 µM each time. As for `CCOCC1CN(S(=O)(=O)c2ccc(F)cc2)c2cc(NC(=O)c3c(Cl)cccc3C(F)(F)F)ccc2O1` (centres unmarked) [Compound 15, 2-Chloro-N-[2-ethoxymethyl-4-(4-fluoro-benzenesulfonyl)-3,4-dihydro-2H-benzo[1,4]oxazin-6-yl]-6-trifluoromethyl-benzamide], the IC50 in experiment [2] and in experiment [1] (setting [4]) was less than 15 µM throughout.

With `CC1(C)CN(S(=O)(=O)c2ccc(F)cc2)c2cc(NC(=O)c3c(F)cccc3Cl)ccc2O1` [Compound 16, 2-Chloro-6-fluoro-N-(4-((4-fluorophenyl)sulfonyl)-2,2-dimethyl-3,4-dihydro-2H-benzo[b][1,4]oxazin-6-yl)benzamide], the IC50 in experiment [2] and in experiment [1] (setting [4]) was less than 15 µM each time.

Turning to `N#Cc1cccc(S(=O)(=O)N2C[C@H](CO)Oc3ccc(NC(=O)c4c(F)cccc4Cl)cc32)c1` [Compound 20, (R)-2-Chloro-N-(4-((3-cyanophenyl)sulfonyl)-2-(hydroxymethyl)-3,4-dihydro-2H-benzo[b][1,4]oxazin-6-yl)-6-fluorobenzamide], the IC50 in experiment [2] and in experiment [1] (setting [4]) was less than 15 µM each time. `N#Cc1cccc(S(=O)(=O)N2C[C@H](CN3CCCC3)Oc3ccc(NC(=O)c4c(F)cccc4Cl)cc32)c1` [Compound 21, (S)-2-Chloro-N-(4-((3-cyanophenyl)sulfonyl)-2-(pyrrolidin-1-ylmethyl)-3,4-dihydro-2H-benzo[b][1,4]oxazin-6-yl)-6-fluorobenzamide]: the IC50 in experiment [2] and in experiment [1] (setting [4]) was less than 15 µM throughout. Turning to `O=C(Nc1ccc2c(c1)N(S(=O)(=O)c1ccc(F)cc1)C[C@H](CF)O2)c1c(F)cccc1Cl` [Compound 22, (R)-2-Chloro-6-fluoro-N-(2-(fluoromethyl)-4-((4-fluorophenyl)sulfonyl)-3,4-dihydro-2H-benzo[b][1,4]oxazin-6-yl)benzamide], the IC50 in experiment [2] and in experiment [1] (setting [4]) was less than 15 µM each time. In the case of `C[C@H]1CN(S(=O)(=O)c2ccc(F)cc2)c2cc(NC(=O)c3c(F)cccc3Cl)ccc2O1` [VI-1], the IC50 in experiment [2] and in experiment [1] (setting [4]) was less than 15 µM each time. For `Cc1nn(C(F)F)cc1S(=O)(=O)N1C[C@H](C)Oc2ccc(NC(=O)c3c(F)cccc3F)cc21` [VI-8], the IC50 in experiment [2] and in experiment [1] (setting [4]) was less than 15 µM each time. Consider `Cc1nn(C(F)F)cc1S(=O)(=O)N1C[C@H](C)Oc2ccc(NC(=O)c3c(Cl)cccc3Cl)cc21` [VI-9], for which the half-inhibitory concentration (IC50) in experiment [2] and in experiment [1] (setting [4]) was less than 15 µM in each case. `Cc1nn(C(F)F)cc1S(=O)(=O)N1C[C@H](C)Oc2ccc(NC(=O)c3c(F)cccc3C(F)(F)F)cc21` [VI-10]: the IC50 in experiment [2] and in experiment [1] (setting [4]) was less than 15 µM in each case. With `Cc1nn(C(F)F)cc1S(=O)(=O)N1C[C@H](C)Oc2ccc(NC(=O)c3c(Cl)cccc3C(F)(F)F)cc21` [VI-11], the IC50 in experiment [2] and in experiment [1] (setting [4]) was less than 15 µM throughout. `Cc1nn(C(F)F)cc1S(=O)(=O)N1C[C@H](C)Oc2ccc(NC(=O)c3c(F)cccc3Cl)cc21` [VI-12]: the IC50 in experiment [2] and in experiment [1] (setting [4]) was less than 15 µM in each case. For the compound `O=C(Nc1ccc2c(c1)N(S(=O)(=O)c1ccc(F)cc1)CC(CC(F)(F)F)O2)c1c(Cl)cccc1Cl` (centres unmarked) [VI-13], the IC50 in experiment [2] and in experiment [1] (setting [4]) was less than 15 µM each time. For the compound `O=C(Nc1ccc2c(c1)N(S(=O)(=O)c1ccc(F)cc1)CC(CC(F)(F)F)O2)c1c(F)cccc1C(F)(F)F` (centres unmarked) [VI-14], the half-maximal inhibitory concentration (IC50) in experiment [2] and in experiment [1] (setting [4]) was less than 15 µM each time. For `O=C(Nc1ccc2c(c1)N(S(=O)(=O)c1ccc(F)cc1)CC(CC(F)(F)F)O2)c1c(Cl)cccc1C(F)(F)F` (centres unmarked) [VI-15], the half-inhibitory concentration (IC50) in experiment [2] and in experiment [1] (setting [4]) was less than 15 µM throughout.

For the compound `O=C(Nc1ccc2c(c1)N(S(=O)(=O)c1ccccc1)C[C@H](CO)O2)c1c(F)cccc1Cl` [VI-24], the IC50 in experiment [2] and in experiment [1] (setting [4]) was less than 15 µM each time.

As for `COc1ccc(S(=O)(=O)N2C[C@H](CO)Oc3ccc(NC(=O)c4c(F)cccc4C(F)(F)F)cc32)cn1` [VI-25], the IC50 in experiment [2] and in experiment [1] (setting [4]) was less than 15 µM each time. In the case of `COc1ccc(S(=O)(=O)N2C[C@H](CO)Oc3ccc(NC(=O)c4c(Cl)cccc4Cl)cc32)cn1` [VI-26], the IC50 in experiment [2] and in experiment [1] (setting [4]) was less than 15 µM each time. On to `COc1ccc(S(=O)(=O)N2C[C@H](CO)Oc3ccc(NC(=O)c4c(C)cccc4Cl)cc32)cn1` [VI-27], for which the IC50 in experiment [2] and in experiment [1] (setting [4]) was less than 15 µM throughout.

On to `COc1ccc(S(=O)(=O)N2C[C@H](CO)Oc3ccc(NC(=O)c4c(F)cccc4Cl)cc32)cn1` [VI-28], for which the IC50 in experiment [2] and in experiment [1] (setting [4]) was less than 15 µM each time. As for `Cc1nn(C(F)F)cc1S(=O)(=O)N1C[C@H](CO)Oc2ccc(NC(=O)c3c(Cl)cccc3C(F)(F)F)cc21` [VI-29], the IC50 in experiment [2] and in experiment [1] (setting [4]) was less than 15 µM each time.

As for `Cc1nn(C(F)F)cc1S(=O)(=O)N1C[C@H](CO)Oc2ccc(NC(=O)c3c(F)cccc3Cl)cc21` [VI-30], the concentration for half-maximal inhibition (IC50) in experiment [2] and in experiment [1] (setting [4]) was less than 15 µM each time. Take `O=C(Nc1ccc2c(c1)N(S(=O)(=O)c1ccc(F)cc1)CC(CNCC1CC1)O2)c1c(F)cccc1Cl` (centres unmarked) [VI-32]: the IC50 in experiment [2] and in experiment [1] (setting [4]) was less than 15 µM in each case. In the case of `CC(C)NCC1CN(S(=O)(=O)c2ccc(F)cc2)c2cc(NC(=O)c3c(F)cccc3Cl)ccc2O1` (centres unmarked) [VI-35], the IC50 in experiment [2] and in experiment [1] (setting [4]) was less than 15 µM in each case.

The compound `O=C(Nc1c(Cl)cccc1Cl)c1ccc2c(c1)N(S(=O)(=O)c1ccc(F)cc1)CCO2` [VI-126] registered a 50% inhibitory concentration (IC50) in experiment [1] (setting [4]) of less than 15 µM.

In experiment [1] (setting [4]), `O=C(Nc1c(F)cccc1Cl)c1ccc2c(c1)N(S(=O)(=O)c1ccc(F)cc1)CCO2` [VI-127] yielded an IC50 of less than 15 µM. Compound `O=C(Nc1ccccc1Cl)c1ccc2c(c1)N(S(=O)(=O)c1ccc(F)cc1)CCO2` [VI-128] showed a concentration for half-maximal inhibition (IC50) in experiment [1] (setting [4]) of less than 15 µM.
